Data taken from patent publication US10487044B2, “Gamma-aminobutyric acid hemihydrate crystal and preparation method thereof” (priority 2016, dated 2019).
Where two headings read alike, the source gives them in different places.

Key:
[1] = Flowability test (angle of repose); assay type: physicochemical
Method: Flowability test: The angle of repose is the maximum angle formed between the free slope of a piled powder and the horizontal plane. It is measured when the particles achieve a static state as they slide on the free slope of the piled powder and experience a balance of gravity and interparticle friction. It is the easiest way to examine the flowability of a powder. The smaller the angle of repose, the smaller the friction and the better the flowability.

[2] = Particle size distribution by laser particle size analyzer; assay type: physicochemical; details: hemihydrate
From the text: The particle size distribution curves of the products in the embodiments of the present invention were all determined by Masterizer laser particle size analyzer from Malvern Panalytical (the U.K.).

[3] = Moisture absorption and agglomeration; assay type: physicochemical
Bulk density test = assay type: physicochemical
[4] = prior-art product, exposed to air; cited from earlier work

Row | Structure (SMILES) | flowability (in words) [1] | bulk density (in words) (Bulk density test) | moisture absorption and agglomeration [3] | also measured
1 | NCCCC(=O)O [Embodiment 1, γ-aminobutyric acid hemihydrate] | – | – | did not easily absorb moisture and agglomerate | angle of repose ([1]; hemihydrate): 38 °; main particle size [2]: 110 μm; bulk density (Bulk density test; hemihydrate): 0.85 g/mL
2 | NCCCC(=O)O | – | – | – | hygroscopicity [4]: highly hygroscopic
3 | NCCCC(=O)O [Embodiment 4, γ-aminobutyric acid hemihydrate] | good flowability | high bulk density | did not easily absorb moisture and agglomerate | –
4 | NCCCC(=O)O [crude λ-aminobutyric acid raw material, γ-aminobutyric acid, reference compound] | – | – | – | angle of repose [1]: 50 °; bulk density (Bulk density test): 0.65 g/mL
5 | NCCCC(=O)O [Embodiment 3, γ-aminobutyric acid hemihydrate] | good flowability | high bulk density | did not easily absorb moisture and agglomerate | –

Continued, in another order:

Row | flowability (in words) [1] | bulk density (in words) (Bulk density test) | Structure (SMILES) | moisture absorption and agglomeration [3] | also measured
6 | good flowability | high bulk density | NCCCC(=O)O [Embodiment 6, γ-aminobutyric acid hemihydrate] | did not easily absorb moisture and agglomerate | –
7 | good flowability | high bulk density | NCCCC(=O)O [Embodiment 2, γ-aminobutyric acid hemihydrate] | did not easily absorb moisture and agglomerate | –
8 | good flowability | high bulk density | NCCCC(=O)O [Embodiment 5, γ-aminobutyric acid hemihydrate] | did not easily absorb moisture and agglomerate | –
